For twelve compounds, IC50 and CC50 results are on record in patent US20110112100A1, “Hepatitis C Virus Inhibitors” (priority 2009, published 2011).

In one data set the test system is 1a-H77 replicon cells. Description: HCV 1a replicon inhibitory activity (Renilla luciferase). It is filed as cell-based, hepatitis C virus. The conditions noted are these: read-out: IC50 value (95% Confidence Intervals) pM Replicon 1A assay. The essentials: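 Replicon cells in DMEM + 10% FCS incubated 48 hours at 37° C., 5% CO2 with 1-in-3 serial dilutions of compound prepared in DMSO. Replication read as Renilla luciferase luminescence after lysis. EC50 taken from log concentration-response curves.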

The test system of another data set is 1b (con1) replicon cells. In words: HCV 1b replicon inhibitory activity (luciferase, Britelite Plus). In kind it is cell-based, hepatitis C virus. The conditions noted are these: read-out: IC50 value (95% Confidence Intervals) pM Replicon 1B assay. The essentials:
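1b (con1) luciferase replicon cells in DMEM + 10% FCS were exposed to 1-in-3 DMSO compound dilutions for 48 h at 37° C, 5% CO2. Luminescence was read 1-15 min after Britelite Plus addition; EC50 came from log concentration-response curves.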
On the technique in general: Replicon systems follow genome replication, usually without infectious particles.

Data set [1] is described as follows: Compound induced cytotoxicity in HCV replicon cell lines (WST-1 reagent). In kind it is cell-based. The conditions noted are these: human, 1b (con1) HCV replicon cells; WST-1, 48 hours; in 1 experiment. As to the method: Test compounds were solubilised to 4 mM in 100% DMSO. Dilutions were made to the desired starting concentration in 100% DMSO and then 1 in 3 dilutions made, again in 100% DMSO. 0.5 μl of each sample was added to 384-well assay plates. White Lumitrac (Greiner) plates were used for the 1a and 1b replicon assays and black, clear bottomed (Greiner) plates were used for the WST-1 cytotoxity assay.
1b (con1) replicon cells were resuspended to a concentration of 1.4×10^5 cells/ml by addition of pre-warmed medium (DMEM+10% FCS). 50 μl of this suspension was added to each well of a 384-well assay plate (Black, clear bottomed, Greiner) already containing 0.5 μl of test compound.
All plates were covered with gas permeable seals and incubated at 37° C., 5% CO2 for 48 hours. After 48 hours, 5 μl WST-1 reagent (Roche, 11 644 807 001) was added to each well and the plate returned to the incubator for 3 hours. After this incubation period absorbance was read at 450 nm on an EnVision (Perkin Elmer) plate reader. The half maximal cytotoxic concentration (CC50) values were calculated for each compound by constructing log concentration-response curves.
All of the exemplified compounds have been screened in a cell proliferation assay (WST-1). A majority have […] in at least 2 independent experiments, the exceptions being the compounds of examples 1, 10, 12, 23, 25, 37, 47, 48, 49, 52, 56, 57, 58, 60, 67, 68, 69, 70, 71, 72, 73, 74, 79, 81 and 84 which have CC50 values>2 μM in 1 experiment, and example 20 where the CC50 is reported as >10 nM (in this instance the top concentration tested in the assay was 10 nM).

[2] abbreviates: Hepatitis C virus, geometric mean, 95% confidence intervals in parentheses, 48 hours, medium with 10% FCS.
Where [3] appears, read: geometric mean, 95% confidence intervals in parentheses, 48 hours, medium with 10% FCS.

Counter-ions that a name gives are not always drawn. Like-named read-outs stand apart in the source and are kept apart here. Bounds are passed on as bounds.

Take `COC(=O)N[C@H](C(=O)N1CCC[C@H]1c1ncc(-c2ccc(-c3ccc4cc(-c5cnc([C@@H]6CCCN6C(=O)[C@@H](NC(=O)OC)C(C)C)[nH]5)cnc4c3)nc2)[nH]1)C(C)C` [Example 10, Methyl {(2S)-1-[(2S)-2-{5-[6-(3-{2-[(2S)-1-{(2S)-2-[(methoxycarbonyl)amino]-3-methyl-butanoyl}pyrrolidin-2-yl]-1H-imidazol-5-yl}quinolin-7-yl)pyridin-3-yl]-1H-imidazol-2-yl}pyrrolidin-1-yl]-3-methyl-1-oxobutan-2-yl}carbamate]: the IC50 in the data set on 1a-H77 replicon cells (setting [2]) was determined as 1320 pM; with 1b (con1) replicon cells (setting [2]), 49.4 pM. The compound also displayed a CC50 at 48 h in data set [1] of more than 2000 nM.
Regarding `CC[C@H](NC(=O)OC)C(=O)N1CCC[C@H]1c1ncc(-c2ccc(-c3ccc4cc(-c5cnc([C@@H]6CCCN6C(=O)[C@H](CC)NC(=O)OC)[nH]5)ccc4c3)cc2)[nH]1` [Example 25, Methyl {(2S)-1-[(2S)-2-{5-[4-(6-{2-[(2S)-1-{(2S)-2-[(methoxycarbonyl)amino]butanoyl}pyrrolidin-2-yl]-1H-imidazol-5-yl}naphthalen-2-yl)phenyl]-1H-imidazol-2-yl}pyrrolidin-1-yl]-1-oxobutan-2-yl}carbamate], the IC50 with 1a-H77 replicon cells (setting [2]) was 88.8 pM; with 1b (con1) replicon cells (setting [2]) it was 10.8 pM. The compound further came in with a cytotoxic concentration (CC50) at 48 h in data set [1] of more than 2000 nM.
Take `CC[C@H](C)[C@H](NC(=O)OC)C(=O)N1CCC[C@H]1c1ncc(-c2ccc3nc(-c4ccc(-c5c[nH]c([C@@H]6CCCN6C(=O)[C@@H](NC(=O)OC)C(C)C)n5)cc4)cnc3c2)[nH]1` [Example 58, Methyl {(2S)-1-[(2S)-2-{4-[4-(6-{2-[(2S)-1-{(2S,3S)-2-[(methoxycarbonyl)amino]-3-methylpentanoyl}pyrrolidin-2-yl]-1H-imidazol-5-yl}quinoxalin-2-yl)phenyl]-1H-imidazol-2-yl}pyrrolidin-1-yl]-3-methyl-1-oxobutan-2-yl}carbamate trifluoroacetic acid salt]: the half-inhibitory concentration (IC50) with 1a-H77 replicon cells (Hepatitis C virus, 48 h) was 6.71 pM; in the data set with 1b (con1) replicon cells (Hepatitis C virus, 48 h), 5.07 pM. For the same compound, the cytotoxic concentration (CC50) at 48 h in data set [1] was more than 2000 nM.
The like results for `CC[C@H](NC(=O)OC)C(=O)N1CCC[C@H]1c1ncc(-c2ccc3nc(-c4ccc(-c5c[nH]c([C@@H]6CCCN6C(=O)[C@@H](NC(=O)OC)C(C)C)n5)cc4)cnc3c2)[nH]1` [Example 52, Methyl {(2S)-1-[(2S)-2-{4-[4-(6-{2-[(2S)-1-{(2S)-2-[(methoxycarbonyl)amino]butanoyl}pyrrolidin-2-yl]-1H-imidazol-5-yl}quinoxalin-2-yl)phenyl]-1H-imidazol-2-yl}pyrrolidin-1-yl]-3-methyl-1-oxobutan-2-yl}carbamate trifluoroacetic acid salt] were, in that order, 22.1 pM, 16.6 pM and more than 2000 nM.
In the case of `CC[C@H](NC(=O)OC)C(=O)N1CCC[C@H]1c1nc(-c2ccc(-c3cnc4cc(-c5cnc([C@@H]6CCCN6C(=O)[C@H](CC)NC(=O)OC)[nH]5)cnc4c3)cc2)c[nH]1` [Example 12, Methyl {(2S)-1-[(2S)-2-{4-[4-(7-{2-[(2S)-1-{(2S)-2-[(methoxycarbonyl)amino]butanoyl}pyrrolidin-2-yl]-1H-imidazol-5-yl}-1,5-naphthyridin-3-yl)phenyl]-1H-imidazol-2-yl}pyrrolidin-1-yl]-1-oxobutan-2-yl}carbamate], the IC50 in the data set with 1a-H77 replicon cells (setting [2]) came to 3100 pM; in the data set on 1b (con1) replicon cells (setting [2]) it was 358 pM. This compound gave a CC50 at 48 h in data set [1] of more than 2000 nM.
Regarding `COC[C@H](NC(=O)OC)C(=O)N1CCC[C@H]1c1ncc(-c2ccc3nc(-c4ccc(-c5c[nH]c([C@@H]6CCCN6C(=O)[C@@H](NC(=O)OC)C(C)C)n5)cc4)cnc3c2)[nH]1` [Example 69, Methyl {(2S)-1-[(2S)-2-{4-[4-(6-{2-[(2S)-1-{(2S)-3-methoxy-2-[(methoxycarbonyl)amino]propanoyl}pyrrolidin-2-yl]-1H-imidazol-5-yl}quinoxalin-2-yl)phenyl]-1H-imidazol-2-yl}pyrrolidin-1-yl]-3-methyl-1-oxobutan-2-yl}carbamate trifluoroacetic acid salt], the half-maximal inhibitory concentration (IC50) is 22.3 pM in the data set on 1a-H77 replicon cells (Hepatitis C virus, 48 h) and 19.6 pM in the data set with 1b (con1) replicon cells (Hepatitis C virus, 48 h). Moreover, in data set [1], the CC50 at 48 h was more than 2000 nM.
For `COC(=O)N[C@H](C(=O)N1CCC[C@H]1c1nc(-c2ccc(-c3cnc4cc(-c5cnc([C@@H]6CCCN6C(=O)[C@@H](CCc6ccccc6)NC(=O)OC)[nH]5)ccc4n3)cc2)c[nH]1)C(C)C` [Example 72, Methyl {(2R)-1-[(2S)-2-{5-[2-(4-{2-[(2S)-1-{(2S)-2-[(methoxycarbonyl)amino]-3-methylbutanoyl}pyrrolidin-2-yl]-1H-imidazol-4-yl}phenyl)quinoxalin-6-yl]-1H-imidazol-2-yl}pyrrolidin-1-yl]-1-oxo-4-phenylbutan-2-yl}carbamate trifluoroacetic acid salt], in that order: 53.6 pM, 7.81 pM and more than 2000 nM.
For `COC(=O)N[C@H](C(=O)N1CCC[C@H]1c1nc(-c2ccc(-c3cnc4cc(-c5cnc([C@@H]6CCCN6C(=O)[C@@H](NC(=O)OC)C(C)(C)C)[nH]5)ccc4n3)cc2)c[nH]1)C(C)C` [Example 70, Methyl {(2S)-1-[(2S)-2-{4-[4-(6-{2-[(2S)-1-{(2S)-2-[(methoxycarbonyl)amino]-3,3-dimethylbutanoyl}pyrrolidin-2-yl]-1H-imidazol-5-yl}quinoxalin-2-yl)phenyl]-1H-imidazol-2-yl}pyrrolidin-1-yl]-3-methyl-1-oxobutan-2-yl}carbamate trifluoroacetic acid salt], in that order: 9.13 pM, 5.17 pM and more than 2000 nM.
As for `COC(=O)N[C@H](C(=O)N1CCC[C@H]1c1nc(-c2ccc(-c3cnc4cc(-c5cnc([C@@H]6CCCN6C(=O)[C@@H](Cc6c[nH]c7ccccc67)NC(=O)OC)[nH]5)ccc4n3)cc2)c[nH]1)C(C)C` [Example 82, Methyl {(2S)-1-[(2S)-2-{4-[4-(6-{2-[(2S)-1-{(2R)-3-(1H-indol-3-yl)-2-[(methoxycarbonyl)amino]propanoyl}pyrrolidin-2-yl]-1H-imidazol-5-yl}quinoxalin-2-yl)phenyl]-1H-imidazol-2-yl}pyrrolidin-1-yl]-3-methyl-1-oxobutan-2-yl}carbamate trifluoroacetic acid salt], the 50% inhibitory concentration (IC50) in the data set with 1a-H77 replicon cells (Hepatitis C virus, 48 h) was found to be 490 pM; with 1b (con1) replicon cells (Hepatitis C virus, 48 h), 190 pM.
The like results for `COC(=O)N[C@H](C(=O)N1CCC[C@H]1c1nc(-c2ccc(-c3cnc4cc(-c5cnc([C@@H]6CCCN6C(=O)C(C)(C)NC(=O)OC)[nH]5)ccc4n3)cc2)c[nH]1)C(C)C` [Example 51, Methyl {(2S)-1-[(2S)-2-{4-[4-(6-{2-[(2S)-1-{2-[(methoxycarbonyl)amino]-2-methylpropanoyl}pyrrolidin-2-yl]-1H-imidazol-5-yl}quinoxalin-2-yl)phenyl]-1H-imidazol-2-yl}pyrrolidin-1-yl]-3-methyl-1-oxobutan-2-yl}carbamate trifluoroacetic acid salt] were, in that order, 1850 pM and 144 pM.
On to `COC(=O)N[C@H](C(=O)N1CCC[C@H]1c1ncc(-c2ccc3cc(-c4cnc(-c5cnc([C@@H]6CCCN6C(=O)[C@@H](NC(=O)OC)C(C)C)[nH]5)cn4)ccc3c2)[nH]1)C(C)C` [Example 24, Methyl {(2S)-1-[(2S)-2-{5-[6-(5-{2-[(2S)-1-{(2S)-2-[(methoxycarbonyl)amino]-3-methylbutanoyl}pyrrolidin-2-yl]-1H-imidazol-4-yl}pyrazin-2-yl)naphthalen-2-yl]-1H-imidazol-2-yl}pyrrolidin-1-yl]-3-methyl-1-oxobutan-2-yl}carbamate], for which the values for the half-inhibitory concentration (IC50) with 1a-H77 replicon cells (setting [2]) and in the data set with 1b (con1) replicon cells (setting [2]) were 19900 pM and 2010 pM, respectively.
Take “Methyl {(2S)-1-[(2S)-2-{4-[4-(6-{2-[(2S)- 1-{(2S)-3-tert-butoxy-2-[(methoxy carbonyl)amino]propanoyl}pyrrolidin-2- yl]-1H-imidazol-5-yl}quinoxalin-2-yl) phenyl]-1H-imidazol-2-yl}pyrrolidin-1-yl]- 3-methyl-1-oxobutan-2-yl}carbamate trifluoroacetic acid salt [Example 81]”: the IC50 with 1a-H77 replicon cells (setting [3]) was 44 pM; in the data set with 1b (con1) replicon cells (setting [3]) it was 13.7 pM.

The IC50 is the concentration that inhibits the measured activity by half. The term CC50 denotes the concentration at which the toxic effect on the cells reaches its halfway point. A lower CC50 goes with greater toxicity to the cells.
